Tests used:
barnyardgrass [1] = test: Test C flooded paddy test; assay type: in vivo, Echinochloa crus-galli; details: Flood
Summary of the method: (§1)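 Visual injury ratings against untreated controls, taken 13 to 15 days after compound was added to paddy water standing 3 cm above the soil.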

crabgrass = test: Test A pre-/postemergence greenhouse test; assay type: in vivo, Digitaria sanguinalis; details: for Plant response rating, Crabgrass, Large: 0 to 100 scale where 0 is no effect and 100 is complete control; for Crabgrass, Large plant response rating: 0 to 100 scale
Summary of the method: (§2)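 Herbicidal effect is a visual injury score given about ten days post-treatment by comparison with untreated controls. Preemergence plots received a directed spray onto sown loam–sand soil; postemergence plants, at the one- to two-leaf stage and 2–10 cm tall, were sprayed at the same time.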

redroot pigweed = test: Test A pre-/postemergence greenhouse test; assay type: in vivo, Amaranthus retroflexus; details: for Plant response rating, Pigweed: 0 to 100 scale where 0 is no effect and 100 is complete control; for Pigweed plant response rating: 0 to 100 scale
Summary of the method: as §2

umbrella sedge = test: Test C flooded paddy test; assay type: in vivo, Cyperus difformis; details: Flood
Summary of the method: as §1

corn = test: Test A pre-/postemergence greenhouse test; assay type: in vivo, Zea mays; details: for Plant response rating, Corn: 0 to 100 scale where 0 is no effect and 100 is complete control; for Corn plant response rating: 0 to 100 scale
Summary of the method: as §2

barnyardgrass [2] = test: Test A pre-/postemergence greenhouse test; assay type: in vivo, Echinochloa crus-galli; details: for Plant response rating, Barnyardgrass: 0 to 100 scale where 0 is no effect and 100 is complete control; for Barnyardgrass plant response rating: 0 to 100 scale
Summary of the method: as §2

giant foxtail = test: Test A pre-/postemergence greenhouse test; assay type: in vivo, Setaria faberi; details: for Plant response rating, Foxtail, Giant: 0 to 100 scale where 0 is no effect and 100 is complete control; for Foxtail, Giant plant response rating: 0 to 100 scale
Summary of the method: as §2

morningglory = test: Test A pre-/postemergence greenhouse test; assay type: in vivo, Ipomoea spp.; details: for Plant response rating, Morningglory: 0 to 100 scale where 0 is no effect and 100 is complete control; for Morningglory plant response rating: 0 to 100 scale
Summary of the method: as §2

velvetleaf = test: Test A pre-/postemergence greenhouse test; assay type: in vivo, Abutilon theophrasti; details: for Plant response rating, Velvetleaf: 0 to 100 scale where 0 is no effect and 100 is complete control; for Velvetleaf plant response rating: 0 to 100 scale
Summary of the method: as §2

duck salad = test: Test C flooded paddy test; assay type: in vivo, Heteranthera limosa; details: Flood
Summary of the method: as §1

rice = test: Test C flooded paddy test; assay type: in vivo, Oryza sativa; details: Flood
Summary of the method: as §1

wheat = test: Test A pre-/postemergence greenhouse test; assay type: in vivo, Triticum aestivum; details: for Plant response rating, Wheat: 0 to 100 scale where 0 is no effect and 100 is complete control; for Wheat plant response rating: 0 to 100 scale
Summary of the method: as §2

[3] = 31 g ai/ha, scale 0 to 100 (0 no effect, 100 complete control)
[4] = 62 g ai/ha, scale 0 to 100, 0 no effect, 100 complete control, 13 to 15 days
[5] = 125 g ai/ha, scale 0 to 100, 0 no effect, 100 complete control, 13 to 15 days
[6] = 250 g ai/ha, scale 0 to 100, 0 no effect, 100 complete control, 13 to 15 days
[7] = Postemergence, 500 g ai/ha, 0 is no effect, 100 is complete control
[8] = Preemergence, 125 g ai/ha, 0 no effect, 100 complete control

SMILES: Cc1cc[n+]([O-])c(S(=O)(=O)C(Cl)c2c(C(F)(F)F)nn(CC(F)(F)F)c2Cl)c1 (stereo not shown) [Compound 56]
- Plant response rating, Barnyardgrass (barnyardgrass [1]; [3]): 0
- Plant response rating, Barnyardgrass (barnyardgrass [1]; [4]): 0
- Plant response rating, Barnyardgrass (barnyardgrass [1]; [5]): 0
- Plant response rating, Barnyardgrass (barnyardgrass [1]; [6]): 20
- Plant response rating, Crabgrass, Large (crabgrass; Postemergence, 125 g ai/ha): 0
- Crabgrass, Large plant response rating (crabgrass; [7]): 50
- Crabgrass, Large plant response rating (crabgrass; [8]): 20
- Plant response rating, Crabgrass, Large (crabgrass; Preemergence, 500 g ai/ha): 80
- Plant response rating, Pigweed (redroot pigweed; Postemergence, 125 g ai/ha): 0
- Pigweed plant response rating (redroot pigweed; [7]): 20
- Plant response rating, Pigweed (redroot pigweed; Preemergence, 500 g ai/ha): 100
- Plant response rating, Sedge, Umbrella (umbrella sedge; [3]): 0
- Plant response rating, Sedge, Umbrella (umbrella sedge; [5]): 45
- Plant response rating, Sedge, Umbrella (umbrella sedge; [6]): 55
- Plant response rating, Corn (corn; Postemergence, 125 g ai/ha): 0
- Corn plant response rating (corn; [7]): 0
- Corn plant response rating (corn; [8]): 0
- Plant response rating, Corn (corn; Preemergence, 500 g ai/ha): 0
- Plant response rating, Barnyardgrass (barnyardgrass [2]; Postemergence, 125 g ai/ha): 0
- Barnyardgrass plant response rating (barnyardgrass [2]; [7]): 50
- Barnyardgrass plant response rating (barnyardgrass [2]; [8]): 0
- Plant response rating, Barnyardgrass (barnyardgrass [2]; Preemergence, 500 g ai/ha): 70
- Plant response rating, Foxtail, Giant (giant foxtail; Postemergence, 125 g ai/ha): 0
- Foxtail, Giant plant response rating (giant foxtail; [7]): 50
- Foxtail, Giant plant response rating (giant foxtail; [8]): 30
- Plant response rating, Foxtail, Giant (giant foxtail; Preemergence, 500 g ai/ha): 90
- Plant response rating, Morningglory (morningglory; Postemergence, 125 g ai/ha): 0
- Morningglory plant response rating (morningglory; [7]): 10
- Morningglory plant response rating (morningglory; [8]): 0
- Plant response rating, Morningglory (morningglory; Preemergence, 500 g ai/ha): 0
- Plant response rating, Velvetleaf (velvetleaf; Postemergence, 125 g ai/ha): 0
- Velvetleaf plant response rating (velvetleaf; [7]): 0
- Velvetleaf plant response rating (velvetleaf; [8]): 0
- Plant response rating, Velvetleaf (velvetleaf; Preemergence, 500 g ai/ha): 40
- Plant response rating, Ducksalad (duck salad; [3]): 0
- Plant response rating, Ducksalad (duck salad; [4]): 40
- Plant response rating, Ducksalad (duck salad; [5]): 85
- Plant response rating, Ducksalad (duck salad; [6]): 100
- Plant response rating, Rice (rice; [3]): 0
- Plant response rating, Rice (rice; [4]): 0
- Plant response rating, Rice (rice; [5]): 0
- Plant response rating, Rice (rice; [6]): 0
- Plant response rating, Wheat (wheat; Postemergence, 125 g ai/ha): 0
- Wheat plant response rating (wheat; [7]): 0
- Wheat plant response rating (wheat; [8]): 0
- Plant response rating, Wheat (wheat; Preemergence, 500 g ai/ha): 0

SMILES: Cn1nc(C(F)(F)F)c(C[S+]([O-])c2cc(Cl)cc[n+]2[O-])c1OC(F)F (stereo not shown) [Compound 57]
- Plant response rating, Barnyardgrass (barnyardgrass [1]; [4]): 15
- Plant response rating, Barnyardgrass (barnyardgrass [1]; [6]): 20
- Plant response rating, Crabgrass, Large (crabgrass; Postemergence, 125 g ai/ha): 60
- Crabgrass, Large plant response rating (crabgrass; [7]): 90
- Crabgrass, Large plant response rating (crabgrass; [8]): 60
- Plant response rating, Crabgrass, Large (crabgrass; Preemergence, 500 g ai/ha): 80
- Plant response rating, Pigweed (redroot pigweed; Postemergence, 125 g ai/ha): 70
- Pigweed plant response rating (redroot pigweed; [7]): 100
- Pigweed plant response rating (redroot pigweed; [8]): 70
- Plant response rating, Pigweed (redroot pigweed; Preemergence, 500 g ai/ha): 100
- Plant response rating, Sedge, Umbrella (umbrella sedge; [6]): 100
- Plant response rating, Corn (corn; Postemergence, 125 g ai/ha): 0
- Corn plant response rating (corn; [7]): 60
- Corn plant response rating (corn; [8]): 0
- Plant response rating, Corn (corn; Preemergence, 500 g ai/ha): 0
- Plant response rating, Barnyardgrass (barnyardgrass [2]; Postemergence, 125 g ai/ha): 30
- Barnyardgrass plant response rating (barnyardgrass [2]; [7]): 50
- Barnyardgrass plant response rating (barnyardgrass [2]; [8]): 60
- Plant response rating, Barnyardgrass (barnyardgrass [2]; Preemergence, 500 g ai/ha): 100
- Plant response rating, Foxtail, Giant (giant foxtail; Postemergence, 125 g ai/ha): 30
- Foxtail, Giant plant response rating (giant foxtail; [7]): 60
- Foxtail, Giant plant response rating (giant foxtail; [8]): 30
- Plant response rating, Foxtail, Giant (giant foxtail; Preemergence, 500 g ai/ha): 100
- Plant response rating, Morningglory (morningglory; Postemergence, 125 g ai/ha): 30
- Morningglory plant response rating (morningglory; [7]): 70
- Morningglory plant response rating (morningglory; [8]): 40
- Plant response rating, Morningglory (morningglory; Preemergence, 500 g ai/ha): 90
- Plant response rating, Velvetleaf (velvetleaf; Postemergence, 125 g ai/ha): 30
- Velvetleaf plant response rating (velvetleaf; [7]): 70
- Velvetleaf plant response rating (velvetleaf; [8]): 50
- Plant response rating, Velvetleaf (velvetleaf; Preemergence, 500 g ai/ha): 70
- Plant response rating, Ducksalad (duck salad; [4]): 40
- Plant response rating, Ducksalad (duck salad; [6]): 95
- Plant response rating, Rice (rice; [4]): 0
- Plant response rating, Rice (rice; [6]): 65
- Plant response rating, Wheat (wheat; Postemergence, 125 g ai/ha): 50
- Wheat plant response rating (wheat; [7]): 70
- Wheat plant response rating (wheat; [8]): 20
- Plant response rating, Wheat (wheat; Preemergence, 500 g ai/ha): 40

Reference: patent US20100298141A1, “SUBSTITUTED PYRIDINE N-OXIDE HERBICIDES” (E. I. DU PONT DE NEMOURS AND COMPANY, priority 2007, published 2010)
